In patent US12492173B2, “Herbicidal substituted N-tetrazolyl aryl carboxamides” (Bayer Aktiengesellschaft, priority 2019, dated 2025):

Legend:
Type in all cases: in vivo
Lolium multiflorum = assay: Pre-emergence herbicidal action, LOLMU; conditions: dosage 320 g/ha, scored visually after 3 weeks vs untreated controls (100% = plants have died)
Source text: 1. Pre-Emergence Herbicidal Action Against Harmful Plants Seeds of monocotyledonous and dicotyledonous weed plants and crop plants are laid out in sandy loam soil in wood-fiber pots and covered with soil. The compounds of the invention, formulated in the form of wettable powders (WP) or as emulsion concentrates (EC), are then applied to the surface of the covering soil in the form of an aqueous suspension or emulsion at a water application rate equating to 600 to 800 l/ha, with addition of 0.2% wetting agent. After the treatment, the pots are placed in a greenhouse and kept under good growth conditions for the trial plants. The damage to the test plants is scored visually after a test period of 3 weeks by comparison with untreated controls (herbicidal activity in percent (%): 100% activity=the plants have died, 0% activity=like control plants). […] The tables below illustrate, in an exemplary manner, the […] herbicidal action of the compounds according to the invention, the herbicidal activity being stated in percent. [table] In the experiments that follow, herbicidal action of numerous inventive compounds and the known compounds that are structurally closest from D1 (WO 2012/028579 A1) and D2 (WO 2018/202535 A1) were compared under the above-specified conditions by the pre-emergence and post-emergence method. The example numbers given in the tables relate to the compounds disclosed in the respective documents. In addition to the compounds disclosed in D1 and D2, the following compounds V-1 to V-14 that are encompassed by D1 or D2 but are not compounds specified therein were used in the comparative experiments: • V-1: 2-(methylsulfanyl)-3-(methylsulfinyl)-N-(1-methyl-1H-tetrazol-5-yl)-4-(trifluoromethyl)benzamide • V-2: 2-(methylsulfanyl)-3-(methylsulfonyl)-N-(1-methyl-1H-tetrazol-5-yl)-4-(trifluoromethyl)benzamide • V-3: 2,3-bis(ethylsulfanyl)-N-(1-methyl-1H-tetrazol-5-yl)-4-(trifluoromethyl)benzamide • V-4: 2-chloro-3-(ethylsulfanyl)-N-(1-methyl-1H-tetrazol-5-yl)-4-(trifluoromethyl)benzamide • V-5: 2-chloro-4-iodo-3-(methylsulfanyl)-N-(1-methyl-1H-tetrazol-5-yl)benzamide • V-6: 2-chloro-4-iodo-3-(methylsulfinyl)-N-(1-methyl-1H-tetrazol-5-yl)benzamide • V-7: 2-chloro-4-iodo-3-(methylsulfonyl)-N-(1-methyl-1H-tetrazol-5-yl)benzamide • V-8: 2-bromo-3-(methylsulfanyl)-N-(1-methyl-1H-tetrazol-5-yl)-4-(trifluoromethyl)benzamide • V-9: 2-bromo-3-(methylsulfinyl)-N-(1-methyl-1H-tetrazol-5-yl)-4-(trifluoromethyl)benzamide • V-10: 2-bromo-3-(methylsulfonyl)-N-(1-methyl-1H-tetrazol-5-yl)-4-(trifluoromethyl)benzamide • V-11: 2-bromo-3-(ethylsulfanyl)-N-(1-methyl-1H-tetrazol-5-yl)-4-(trifluoromethyl)benzamide • V-12: 2-bromo-3-(ethylsulfinyl)-N-(1-methyl-1H-tetrazol-5-yl)-4-(trifluoromethyl)benzamide • V-13: 2-bromo-3-(ethylsulfonyl)-N-(1-methyl-1-1H-tetrazol-5-yl)-4-(trifluoromethyl)benzamide • V-14: 2-cyclopropyl-3-(ethylsulfanyl)-N-(1-methyl-1H-tetrazol-5-yl)-4-(trifluoromethyl)benzamide Herbicidal Pre-Emergence Action: […]

Pharbitis purpurea = assay: Pre-emergence herbicidal action, PHBPU; conditions: dosage 320 g/ha, scored visually after 3 weeks vs untreated controls (100% = plants have died)
Method in brief: (§1)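 Percent damage, assessed visually after 3 weeks and referenced to untreated controls, reflects a pre-emergence treatment. Spray liquid equated to 600 to 800 l/ha with 0.2% wetting agent, applied to the covering soil over seeds in sandy loam.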

Stellaria media = assay: Pre-emergence herbicidal action, STEME; set-up: key to Herbicidal action against STEME: % activity: 100 = plants have died, 0 = like control plants; conditions: for Herbicidal action against STEME: comparative experiment; for herbicidal activity STEME: dosage 320 g/ha, scored visually after 3 weeks vs untreated controls (100% = plants have died)
Method in brief: as §1

Abutilon theophrasti = assay: Post-emergence herbicidal action, ABUTH; set-up: key: % herbicidal action vs untreated; 100 = plants died, 0 = like control; conditions: for Herbicidal action against ABUTH: comparative experiment
Method in brief: (§2)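 Percent herbicidal effect was judged by eye against untreated controls around 3 weeks after foliar treatment, where 100% meant dead plants. Spraying took place at the one-leaf stage using wettable powder or emulsion concentrate diluted in water (600 to 800 l/ha) with added wetting agent at 0.2%.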

Avena fatua = assay: Post-emergence herbicidal action, AVEFA; set-up: key: % herbicidal action vs untreated; 100 = plants died, 0 = like control; conditions: for Herbicidal action against AVEFA: comparative experiment
Method in brief: as §2

Cyperus esculentus = assay: Post-emergence herbicidal action, CYPES; set-up: key: % herbicidal action vs untreated; 100 = plants died, 0 = like control
Method in brief: as §2

[1] = post-emergence, 20 g of a.i./ha

| Compound | herbicidal activity LOLMU (Lolium multiflorum) [%] | herbicidal activity PHBPU (Pharbitis purpurea) [%] | Herbicidal action against STEME (Stellaria media; 80 g of a.i./ha) | herbicidal activity STEME (Stellaria media) [%] | Herbicidal action against ABUTH (Abutilon theophrasti; [1]) | herbicidal action ABUTH (Abutilon theophrasti; post-emergence, dosage 80 g/ha) [%] | herbicidal action AVEFA (Avena fatua; post-emergence, dosage 80 g/ha) [%] | herbicidal action CYPES (Cyperus esculentus; post-emergence, dosage 80 g/ha) [%] | Herbicidal action against STEME (Stellaria media; 20 g of a.i./ha) | herbicidal action ABUTH (Abutilon theophrasti; Dosage 80 g/ha) | Herbicidal action against ABUTH (Abutilon theophrasti; post-emergence, 5 g of a.i./ha) | herbicidal action AVEFA (Avena fatua; Dosage 80 g/ha) | Herbicidal action against AVEFA (Avena fatua; post-emergence, 5 g of a.i./ha) | herbicidal action CYPES (Cyperus esculentus; Dosage 80 g/ha) | Herbicidal action against AVEFA (Avena fatua; [1]) | Herbicidal action against CYPES (Cyperus esculentus; comparative experiment, post-emergence, 20 g of a.i./ha) |
| --- | --- | --- | --- | --- | --- | --- | --- | --- | --- | --- | --- | --- | --- | --- | --- | --- |
| CC[S+]([O-])Cc1c(C(F)(F)F)ccc(C(=O)Nc2nnnn2C)c1Br (racemic) [Example 1-384] | 100 | 90 | 100 | 100 | 90 | 100 | 100 | 90 | – | – | – | – | – | – | – | – |
| CSCc1c(C(F)(F)F)ccc(C(=O)Nc2nnnn2C)c1C [Example 1-83] | 100 | 80 | – | 100 | – | 90 | 90 | 90 | – | – | – | – | – | – | – | – |
| CCSCc1c(C(F)(F)F)ccc(C(=O)Nc2nnnn2C)c1SCC [Example 1-182] | 90 | 80 | – | 90 | – | – | – | – | 90 | 90 | 70 | 80 | – | – | – | – |
| CCSCc1c(C(F)(F)F)ccc(C(=O)Nc2nnnn2C)c1Cl [Example 1-299] | 100 | 90 | – | 100 | – | 100 | 90 | 80 | – | – | – | – | 80 | – | – | – |
| Cn1nnnc1NC(=O)c1ccc(C(F)F)c(CS(C)(=O)=O)c1Cl [Example 1-322] | 100 | 100 | – | 100 | – | 100 | 80 | – | – | – | – | – | – | – | – | – |
| CCSCc1c(C(F)F)ccc(C(=O)Nc2nnnn2C)c1Cl [Example 1-323] | 100 | 100 | – | 100 | – | 100 | 100 | 80 | – | – | – | – | 70 | – | – | – |
| CCS(=O)(=O)Cc1c(C(F)F)ccc(C(=O)Nc2nnnn2C)c1Cl [Example 1-325] | 100 | 100 | – | 100 | – | – | – | – | – | 100 | – | 90 | – | 80 | – | – |
| CCSCc1c(C(F)(F)F)ccc(C(=O)Nc2nnnn2C)c1Br [Example 1-383] | 100 | 80 | – | 100 | 90 | 100 | 90 | – | – | – | – | – | – | – | 90 | – |
| CCS(=O)(=O)Cc1c(C(F)(F)F)ccc(C(=O)Nc2nnnn2C)c1Br [Example 1-385] | 100 | – | – | 90 | – | 100 | 100 | 80 | – | – | – | – | – | – | 80 | 60 |
| CCn1nnnc1NC(=O)c1ccc(C(F)(F)F)c(C[S+](C)[O-])c1Cl (stereo not drawn) [Example 2-297] | 90 | 90 | – | 100 | – | 80 | 100 | – | – | – | – | – | – | – | – | – |
| CCn1nnnc1NC(=O)c1ccc(C(F)(F)F)c(CS(C)(=O)=O)c1Cl [Example 2-298] | 90 | 80 | – | 90 | – | – | – | – | – | 80 | – | 100 | – | – | – | – |
| CCn1nnnc1NC(=O)c1ccc(C(F)F)c(CS(C)(=O)=O)c1Cl [Example 2-322] | 100 | 100 | – | 100 | – | 100 | 80 | – | – | – | – | – | – | – | – | – |
| CCn1nnnc1NC(=O)c1ccc(C(F)F)c(CS(=O)(=O)CC)c1Cl [Example 2-325] | 100 | 100 | – | 100 | – | – | – | – | – | 100 | – | 90 | – | – | – | – |
| CCn1nnnc1NC(=O)c1ccc(C(F)(F)F)c(C[S+]([O-])CC)c1Br (stereo not drawn) [Example 2-384] | 100 | 90 | – | 100 | – | 100 | 90 | – | – | – | – | – | – | – | – | – |
| CCCn1nnnc1NC(=O)c1ccc(C(F)(F)F)c(CS(C)(=O)=O)c1Cl [Example 3-298] | 90 | 90 | – | 90 | – | – | – | – | – | 80 | – | 100 | – | – | – | – |
| CCCn1nnnc1NC(=O)c1ccc(C(F)F)c(CS(C)(=O)=O)c1Cl [Example 3-322] | 80 | 90 | – | 100 | – | – | – | – | – | 100 | – | 80 | – | – | – | – |
| CCCn1nnnc1NC(=O)c1ccc(C(F)F)c(CSCC)c1Cl [Example 3-323] | 100 | 100 | – | 100 | – | – | – | – | – | 100 | – | 90 | – | – | – | – |
| CCCn1nnnc1NC(=O)c1ccc(C(F)(F)F)c(C[S+]([O-])CC)c1Br (stereo not drawn) [Example 3-384] | 90 | 90 | – | 90 | – | – | – | – | – | 100 | – | 90 | – | – | – | – |
